Results from patent US20070048372A1, “Method for treating non-inflammatory osteoarthritic pain” (SRZ Properties, Inc., priority 2005, published 2007).
Entries after “also recorded” stand apart in the source; their conditions may differ.

Legend:
[1] = system: monosodium iodoacetate-induced mechanical hyperalgesia; test: Monosodium iodoacetate-induced mechanical hyperalgesia (Randall-Selitto paw pressure); format: in vivo, rat (Wistar)
[2] = system: muscle pressure hyperalgesia induced by TNF; test: TNF-induced muscle pressure hyperalgesia (Randall-Selitto, withdrawal threshold to muscle pressure); format: in vivo, rat (Sprague Dawley); settings: for reversal of muscular mechanical hyperalgesia (withdrawal threshold to muscle pressure): 18 h after TNF i.m., 30 to 60 minutes after drug
Experimental: (§1) Adult male Sprague Dawley rats with a body weight of 250 g to 300 g were used (supplier: Charles River, Sulzfeld, Germany). Animals were group-housed (3 animals per cage) and maintained in a room with controlled temperature (21-22° C.) and a reversed light-dark cycle (12 h/12 h) with food and water available ad libitum. All experiments were approved by the Bavarian State animal experimentation committee and carried out in accordance with its regulations.
(§2) Recombinant rat tumor necrosis factor alpha (herein referred to as TNF) was obtained from R&D Systems, Minneapolis, Minn., U.S.A. TNF was diluted in 0.9% NaCl and used in a concentration of 1 μg in 50 μl. Injections were performed in short halothane narcosis with a 30 g needle bilaterally into the gastrocnemius or into the biceps brachii muscle. All rats were used to the behavioral tests before injections and baseline values were recorded over three test days.
Mechanical withdrawal thresholds to muscle pressure were measured with an analgesimeter (Ugo Basile, Comerio, Italy). The rat was allowed to crawl into a sock which helps the rat to relax. The hind limbs were positioned such that an increasing pressure could be applied onto the gastrocnemius muscle (maximum 250 g). The pressure needed to elicit withdrawal was recorded. Means of 3 trials for each hind limb were calculated (interstimulus interval of >30 sec). Only animals with a significant TNF effect were included for further analysis.
Rats were injected with TNF into the gastrocnemius muscle at 2 pm. Eighteen hours later, rats were tested for pressure hyperalgesia pre- and post-administration of the test drug. Rats were tested for pressure hyperalgesia 30 to 60 minutes after drug administration.
(§3) The rats, initially 10 per group, were treated with either 3, 10 or 30 mg/kg lacosamide, 2 mg/kg metamizol, 30 or 100 mg/kg pregabalin, 100 mg/kg gabapentin, or the NaCl vehicle, i.p. (intraperitoneally). Volume of i.p. injections was 0.5 ml. A pilot study was performed to confirm that i.m. (intramuscular) injection of 1 μg TNF into the gastrocnemius muscle was sufficient to induce pressure hyperalgesia.
(§4) Data are shown in graphs displaying means and standard errors of the means (SEM). Pre- and post-treatment data were compared using ANOVA (analysis of variance) and a Tukey post hoc test. Means of treatment groups were compared using a one-way ANOVA and Dunnett's post hoc test. Maximal possible effects (MPE) were calculated for all types of treatment.

[3] = system: rat formalin paw test (late phase); test: Rat formalin paw test (late phase): number of flinches and licking time; format: in vivo, rat (Rj: Wistar (Han))
Experimental: Rats were given an intraplantar injection of 5% formalin (50 μl) into the posterior left paw. This treatment induces a recognizable flinching and licking response of the affected paw in control animals. The number of flinches was counted for 15 minutes, beginning 20 minutes after injection of formalin. The time spent licking the affected paw was also recorded.
Male Rj: Wistar (Han) rats, 10 per group, weighing 100-130 g at the beginning of the experiments were studied per group. The test was performed blind.
Lacosamide (20 mg/kg), gabapentin (50 and 100 mg/kg), combinations of lacosamide (20 mg/kg) with gabapentin (50 and 100 mg/kg), and vehicle were administered i.p. 10 minutes before injection of formalin.
Lacosamide (10 and 20 mg/kg), morphine (2 and 4 mg/kg), combinations of lacosamide (10 and 20 mg/kg) with morphine (2 and 4 mg/kg), and vehicle were administered i.p. 10 minutes before injection of formalin.
Lacosamide (10 mg/kg), duloxetine (8 mg/kg), a combination of lacosamide (10 mg/kg) with duloxetine (8 mg/kg), and vehicle were administered i.p. 10 minutes before injection of formalin.
Lacosamide (10 and 20 mg/kg), memantine (4 and 8 mg/kg), combinations of lacosamide (10 and 20 mg/kg) with memantine (4 and 8 mg/kg), and vehicle were administered i.p. 10 minutes before injection of formalin.
Lacosamide (10 and 20 mg/kg), naproxen (8 and 16 mg/kg), combinations of lacosamide (10 and 20 mg/kg) with […] (8 and 16 mg/kg), and vehicle were administered i.p. 10 minutes before injection of formalin. Morphine (8 mg/kg) was included as a comparative treatment.

[4] = system: monosodium iodoacetate-induced tactile allodynia; test: Monosodium iodoacetate-induced tactile allodynia (von Frey filaments); format: in vivo, rat (Wistar)
[5] = system: biceps muscle grip strength after TNF-induced muscle pain; test: Biceps muscle grip strength after TNF-induced muscle pain; format: in vivo, rat (Sprague Dawley); settings: for reversal of TNF-induced reduction of grip strength: 6 h after TNF i.m., 30 to 60 minutes after drug
Experimental: as §1, §2
Grip strength of the forelimbs was tested with a digital grip force meter (DFIS series, Chatillon, Greensboro, NC, U.S.A.). The rat was positioned to grab the grid with the forelimbs and was gently pulled so that the grip strength could be recorded. Means of three trials were calculated. The effect of the TNF treatment was calculated for each animal separately and only animals with a significant TNF effect were included for further analysis.
Rats were injected with TNF into the biceps brachii muscle at 8 am. Six hours later, grip strength of the forelimbs was tested with a digital grip force meter. Test drug was administered, and grip strength was again tested after 30 to 60 minutes.
as §3, §4

COC[C@@H](NC(C)=O)C(=O)NCc1ccccc1 [Lacosamide, (R)-2-acetamido-N-benzyl-3-methoxypropionamide]
paw pressure withdrawal threshold compared to iodoacetate/vehicle treated animals (mechanical hyperalgesia) ([1]; day 3, 3 mg/kg p.o.): increase in paw pressure withdrawal threshold | mechanical hyperalgesia (paw pressure withdrawal threshold) ([1]; day 7, 3 mg/kg p.o.): reduced mechanical hyperalgesia | mechanical hyperalgesia (paw pressure withdrawal threshold) ([1]; day 7, 10 mg/kg p.o.): reduced mechanical hyperalgesia | mechanical hyperalgesia (paw pressure withdrawal threshold) ([1]; day 7, 30 mg/kg p.o.): reduced mechanical hyperalgesia | mechanical hyperalgesia (paw pressure withdrawal threshold) ([1]; day 14, 10 mg/kg p.o.): did not show a statistically significant effect | mechanical hyperalgesia during the post-inflammatory period ([1]; p.o., overall conclusion): inhibited mechanical hyperalgesia | MPE (maximal possible effect) on muscle pressure hyperalgesia, compared with vehicle ([2]; 10 mg/kg i.p.): significantly different from vehicle | MPE (maximal possible effect) on muscle pressure hyperalgesia, compared with vehicle ([2]; 30 mg/kg i.p.): significantly different from vehicle | reversal of muscular mechanical hyperalgesia (withdrawal threshold to muscle pressure) ([2]; 30 mg/kg i.p.): full reversal | reversal of muscular mechanical hyperalgesia (withdrawal threshold to muscle pressure) ([2]; 30 mg/kg i.p., listed as lacosamide): complete reversal | muscle hyperalgesia induced by TNF injection in the paw pressure test, dose dependence ([2]; 3, 10 and 30 mg/kg i.p.): dose-dependently improved | Licking time % change (a) compared with vehicle control ([3]; Example 3, 20 mg/kg i.p. alone): −34% (a) | Licking time (seconds) mean ± SEM ([3]; Example 3, 20 mg/kg i.p. alone): 146.9 ± 23.8 NS (a) seconds | No. of flinches % change (a) compared with vehicle control ([3]; Example 3, 20 mg/kg i.p. alone): −33% (a) | No. of flinches mean ± SEM ([3]; Example 3, 20 mg/kg i.p. alone): 85.7 ± 14.3 NS (a) | decrease of the number of flinches as compared with vehicle controls ([3]; Example 3, 20 mg/kg i.p. alone): 33% | decrease of the time spent licking as compared with vehicle controls ([3]; Example 3, 20 mg/kg i.p. alone): 34% | Licking time % change (a) compared with vehicle control ([3]; Example 4, 10 mg/kg i.p. alone): −28% (a) | Licking time (seconds) mean ± SEM ([3]; Example 4, 10 mg/kg i.p. alone): 210.1 ± 22.7 (a) seconds | No. of flinches % change (a) compared with vehicle control ([3]; Example 4, 10 mg/kg i.p. alone): +22% (a) | No. of flinches mean ± SEM ([3]; Example 4, 10 mg/kg i.p. alone): 182.7 ± 25.9 NS (a) | decrease of the time spent licking as compared with vehicle controls ([3]; Example 4, 10 mg/kg i.p. alone): 28% | increase of the number of flinches as compared with vehicle controls ([3]; Example 4, 10 mg/kg i.p. alone): 22% | Licking time % change (a) compared with vehicle control ([3]; Example 4, 20 mg/kg i.p. alone): −56% (a) | Licking time (seconds) mean ± SEM ([3]; Example 4, 20 mg/kg i.p. alone): 128.2 ± 28.0 (a) seconds | No. of flinches % change (a) compared with vehicle control ([3]; Example 4, 20 mg/kg i.p. alone): −35% (a) | No. of flinches mean ± SEM ([3]; Example 4, 20 mg/kg i.p. alone): 97.2 ± 16.0 NS (a) | decrease of the number of flinches as compared with vehicle controls ([3]; Example 4, 20 mg/kg i.p. alone): 35% | decrease of the time spent licking as compared with vehicle controls ([3]; Example 4, 20 mg/kg i.p. alone): 56% | Licking time % change (a) compared with vehicle control ([3]; Example 5, 10 mg/kg i.p. alone): −30% (a) | Licking time (seconds) mean ± SEM ([3]; Example 5, 10 mg/kg i.p. alone): 185.2 ± 31.7 NS (a) seconds | No. of flinches % change (a) compared with vehicle control ([3]; Example 5, 10 mg/kg i.p. alone): +5% (a) | No. of flinches mean ± SEM ([3]; Example 5, 10 mg/kg i.p. alone): 158.2 ± 15.6 NS (a) | decrease of the time spent licking as compared with vehicle controls ([3]; Example 5, 10 mg/kg i.p. alone): 30% | effects on the number of flinches and the time spent licking ([3]; Example 5, 10 mg/kg i.p. alone): had no significant effects | Licking time % change (a) compared with vehicle control ([3]; Example 6, 10 mg/kg i.p. alone): −4% (a) | Licking time (seconds) mean ± SEM ([3]; Example 6, 10 mg/kg i.p. alone): 168.5 ± 23.9 NS (a) seconds | No. of flinches % change (a) compared with vehicle control ([3]; Example 6, 10 mg/kg i.p. alone): −31% (a) | No. of flinches mean ± SEM ([3]; Example 6, 10 mg/kg i.p. alone): 113.9 ± 23.2 NS (a) | decrease of the number of flinches as compared with vehicle controls ([3]; Example 6, 10 mg/kg i.p. alone): 31% | effect on the time spent licking as compared with vehicle controls ([3]; Example 6, 10 mg/kg i.p. alone): had no clear effects | Licking time % change (a) compared with vehicle control ([3]; Example 6, 20 mg/kg i.p. alone): −52% (a) | Licking time (seconds) mean ± SEM ([3]; Example 6, 20 mg/kg i.p. alone): 85.1 ± 19.1 (a) seconds | No. of flinches % change (a) compared with vehicle control ([3]; Example 6, 20 mg/kg i.p. alone): −48% (a) | No. of flinches mean ± SEM ([3]; Example 6, 20 mg/kg i.p. alone): 85.8 ± 14.4 (a) | decrease of the number of flinches as compared with vehicle controls ([3]; Example 6, 20 mg/kg i.p. alone): 48% | decrease of the time spent licking as compared with vehicle controls ([3]; Example 6, 20 mg/kg i.p. alone): 52% | Licking time % change (a) compared with vehicle control ([3]; Example 7, 10 mg/kg i.p. alone): −9% (a) | Licking time (seconds) mean ± SEM ([3]; Example 7, 10 mg/kg i.p. alone): 174.7 ± 20.4 NS (a) seconds | No. of flinches % change (a) compared with vehicle control ([3]; Example 7, 10 mg/kg i.p. alone): −13% (a) | No. of flinches mean ± SEM ([3]; Example 7, 10 mg/kg i.p. alone): 99.2 ± 16.6 NS (a) | effect on the time spent licking as compared with vehicle controls ([3]; Example 7, 10 mg/kg i.p. alone): had no clear effects | Licking time % change (a) compared with vehicle control ([3]; Example 7, 20 mg/kg i.p. alone): −59% (a) | Licking time (seconds) mean ± SEM ([3]; Example 7, 20 mg/kg i.p. alone): 78.9 ± 20.4 ***(a) seconds | No. of flinches % change (a) compared with vehicle control ([3]; Example 7, 20 mg/kg i.p. alone): −12% (a) | No. of flinches mean ± SEM ([3]; Example 7, 20 mg/kg i.p. alone): 100.3 ± 22.3 NS (a) | decrease of the time spent licking as compared with vehicle controls ([3]; Example 7, 20 mg/kg i.p. alone): 59% | effect on the number of flinches as compared with vehicle controls ([3]; Example 7, 10 and 20 mg/kg i.p. alone): did not clearly affect | tactile allodynia of iodoacetate-treated rats (von Frey) ([4]; day 3, 30 mg/kg p.o., 60 minutes before test): improved tactile allodynia | tactile allodynia of iodoacetate-treated rats (von Frey) ([4]; day 7, 30 mg/kg p.o., 60 minutes before test): improved tactile allodynia | tactile allodynia of iodoacetate-treated rats (von Frey) ([4]; day 14, 30 mg/kg p.o., 60 minutes before test): not on day 14 | tactile allodynia of iodoacetate-treated rats (von Frey) ([4]; lower doses (3 and 10 mg/kg p.o.)): showed a trend for such improvement | MPE (maximal possible effect) on biceps muscle grip strength, compared with vehicle ([5]; 10 mg/kg i.p.): significantly different from vehicle | reversal of TNF-induced reduction of grip strength ([5]; 10 mg/kg i.p.): significant reversal; also recorded: reversed the effect of TNF on the muscle | MPE (maximal possible effect) on biceps muscle grip strength, compared with vehicle ([5]; 30 mg/kg i.p.): significantly different from vehicle | reversal of TNF-induced reduction of grip strength ([5]; 30 mg/kg i.p.): significant reversal
